Article PMC3206016, “Putting into Practice Domain-Linear Motif Interaction Predictions for Exploration of Protein Networks” (PLoS ONE, 2011)
Peptide text beside a SMILES is read from it. * marks the point of attachment. Biotin = O=C1N[C@H]2[C@H](CS[C@H]2CCCCC(=O)*)N1

Legend:
Test in all cases: SPR binding of MBP-PDZ analyte to immobilised biotinylated peptides
Conditions in all cases: for norm. RU at 10 µM: SPR Req at 10 µM MBP-PDZ, normalised for analyte molecular weight and immobilised ligand
MAGI1-3/6 PDZ domain = target: T1, MAGI1-3/6 PDZ domain (Mus musculus, UniProt Q6RHR9)
T1 construct: The cDNA encoding residues 448–572 and 613–752 of mouse MAGI-1 (UniProt acc.: Q6RHR9-1); made in house; host or cells: E. coli BL21 DE3
Description: (§1) We opted for the surface plasmon resonance (SPR) method to measure these 190 (19 proteins×2 peptide versions×5 PDZ constructs) interactions. In SPR various concentrations of “analytes” (here, PDZ domains fused to the Maltose Binding Protein (MBP)) flow over surfaces presenting attached “ligands” (here, biotinylated peptides). The amount of analyte interacting with the ligand is measured and quantified in response units (RU). The intensity of this signal is proportional to the binding strength of the assayed interaction (Figure 5A). K [drawing 13] were obtained using a 1∶1 interaction model. However, these calculated K [drawing 14] were rather inaccurate especially for weak interactions. Therefore, we preferred to rank the binding strengths of the 190 interactions using normalised RU signals at equilibrium ( [drawing 15] ) rather than K [drawing 16] (see Methods for details). These normalised [drawing 17] values were plotted in form of a heat map (Figure 5B).
(§2) The cDNA encoding residues 448–572 and 613–752 of mouse MAGI-1 (UniProt acc.: Q6RHR9-1) encoding for MAGI1-2/6 (100% identical to human MAGI1-2/6) and MAGI1-3/6 (99% identical to human MAGI1-3/6) PDZ domains, respectively, were inserted into the NcoI/KpnI sites of the pETM-41 expression vector (EMBL) containing a 6×His-MBP tag followed by a TEV protease cleavage site. A similar cloning strategy was adopted for cDNA bearing residues 997–1093, 1097–1193 and 997–1193 of human SCRIB (Uniprot acc.: Q14160-1) encoding for SCRIB-3/4, SCRIB-4/4 PDZ domains and SCRIB-34/4 tandem PDZ construct, respectively.
(§3) Data were collected on a Biacore 2000 instrument (Biacore AB/GE Healthcare Bio-Sciences Corp., Piscataway, NJ, USA) at 25 [drawing 74] C. SPR experiments (ligand immobilisation and binding measurements) have been performed as described in Fournane et al.. Briefly, biotinylated peptides (instead of GST-fused recombinant peptides) were immobilised on CM5 sensorchips on which Neutravidin was previously attached. The MBP-PDZ domain analyte was injected at 8 to 10 different concentrations ranging from 0 up to 30 [drawing 75] M. Data were processed using the BiaEvaluation 3.2 software (Biacore AB/GE Healthcare Bio-Sciences Corp.) using “double referencing” [78] in which sensorgrams were corrected for buffer effects and bulk refractive index changes.
(§4) The steady-state binding signal ( [drawing 76] ) was derived by averaging the signals in a five second window at equilibrium. Steady-state analysis was performed by fitting the average signal [drawing 77] as a function of total MBP-PDZ concentrations, assuming a simple 1∶1 interaction binding isotherm model. […] Reasons for this inaccuracy are likely to be the following: 1. As previously described, several repetitions of all the measurements are required to determine accurate K [drawing 81] . In our case, such repetitions were not achievable in reasonable time due to the large amount of interactions measured in this study. 2. The highest injected analyte concentration restricts the maximal K [drawing 82] (weakest interaction) that can be accurately obtained. 3. A K [drawing 83] is estimated based on a mathematical extrapolation of observed [drawing 84] signals leading to additional uncertainty. Based on these reasons, we considered the calculated K [drawing 85] not as accurate enough to be used for absolute binding strength comparison in this study. We rather performed a relative analysis of binding strengths using directly [drawing 86] signals which are not biased by any mathematical assumption. We focussed on [drawing 87] signals obtained at 10 [drawing 88] M MBP-PDZ concentration, which have been systematically measured in duplicate. The [drawing 89] signal is directly proportional to the molecular weight of the analyte and the amount of immobilised ligand. Therefore, the [drawing 90] signals were normalised taking those into account before being used for binding strength comparison. […]

SCRIB-4/4 PDZ domain = target: T2, SCRIB-4/4 PDZ domain (Homo sapiens, UniProt Q14160)
T2 construct: residues 997–1093, 1097–1193 and 997–1193 of human SCRIB (Uniprot acc.: Q14160-1); made in house; host or cells: E. coli BL21 DE3
T2 sequence (Q14160 1097-1193 isoform Q14160-1): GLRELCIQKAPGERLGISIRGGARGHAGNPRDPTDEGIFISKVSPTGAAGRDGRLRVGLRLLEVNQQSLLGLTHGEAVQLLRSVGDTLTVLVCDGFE
Description: as §1, §2, §3, §4

MAGI1-2/6 PDZ domain = target: T3, MAGI1-2/6 PDZ domain (Mus musculus, UniProt Q6RHR9)
T3 construct: The cDNA encoding residues 448–572 and 613–752 of mouse MAGI-1 (UniProt acc.: Q6RHR9-1) encoding for MAGI1-2/6; made in house; host or cells: E. coli BL21 DE3
Description: as §1, §2, §3, §4

[1] = target: T4, SCRIB-34/4 tandem PDZ construct (Homo sapiens, UniProt Q14160)
T4 construct: residues 997–1093, 1097–1193 and 997–1193 of human SCRIB (Uniprot acc.: Q14160-1); made in house; host or cells: E. coli BL21 DE3
T4 sequence (Q14160 997-1193 isoform Q14160-1): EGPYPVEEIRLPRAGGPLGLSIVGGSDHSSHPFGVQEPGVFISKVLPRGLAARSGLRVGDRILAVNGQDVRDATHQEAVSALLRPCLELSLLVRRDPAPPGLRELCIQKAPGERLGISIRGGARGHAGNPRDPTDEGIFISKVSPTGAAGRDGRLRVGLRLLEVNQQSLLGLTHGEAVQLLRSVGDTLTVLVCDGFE
Description: as §1, §2, §3, §4

SCRIB-3/4 PDZ domain = target: T5, SCRIB-3/4 PDZ domain (Homo sapiens, UniProt Q14160)
T5 construct: cDNA bearing residues 997–1093, 1097–1193 and 997–1193 of human SCRIB (Uniprot acc.: Q14160-1); made in house; host or cells: E. coli BL21 DE3
T5 sequence (Q14160 997-1093 isoform Q14160-1): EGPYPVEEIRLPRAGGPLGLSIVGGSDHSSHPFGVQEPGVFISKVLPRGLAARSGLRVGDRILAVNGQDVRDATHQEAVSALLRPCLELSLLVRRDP
Description: as §1, §2, §3, §4

[2] = tentative KD, SPR Biacore 2000, 25 C, steady state, 1:1 binding isotherm, MBP-PDZ 0-30 µM, to be considered with caution

T3 sequence (Q6RHR9 448-572): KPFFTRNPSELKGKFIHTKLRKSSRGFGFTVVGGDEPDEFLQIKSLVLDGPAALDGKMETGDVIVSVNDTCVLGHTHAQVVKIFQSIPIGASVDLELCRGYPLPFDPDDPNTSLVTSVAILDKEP
T1 sequence (Q6RHR9 613-752): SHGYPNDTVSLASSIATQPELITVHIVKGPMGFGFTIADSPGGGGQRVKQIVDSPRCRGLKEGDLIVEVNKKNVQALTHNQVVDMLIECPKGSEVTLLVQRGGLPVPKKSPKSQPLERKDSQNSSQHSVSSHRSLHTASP

norm. RU at 10 µM (MAGI1-3/6 PDZ domain) | norm. RU at 10 µM (SCRIB-4/4 PDZ domain) | norm. RU at 10 µM (MAGI1-2/6 PDZ domain) | norm. RU at 10 µM [1] | norm. RU at 10 µM (SCRIB-3/4 PDZ domain) | Compound | Kd (MAGI1-3/6 PDZ domain; [2]) | Kd (SCRIB-4/4 PDZ domain; [2]) | Kd (MAGI1-2/6 PDZ domain; [2]) | Kd [1, 2] | Kd (SCRIB-3/4 PDZ domain; [2])
0.0 RU | 0.0 RU | 0.0 RU | 70.8 RU | 57.5 RU | C[C@H](NC(=O)[C@@H](NC(=O)CCCC[C@@H]1SC[C@@H]2NC(=O)N[C@@H]21)[C@@H](C)O)C(=O)N[C@@H](CO)C(=O)N1CCC[C@H]1C(=O)N[C@@H](C)C(=O)N[C@@H](CCCCN)C(=O)N[C@@H](CCC(=O)O)C(=O)N[C@H](C(=O)N[C@@H](CO)C(=O)N[C@@H](Cc1ccccc1)C(=O)O)[C@@H](C)O [GLUT7_10] (Biotin-TASPAKETSF-OH) |  |  |  |  | 
10.9 RU | 0.0 RU | 54.7 RU | 88.1 RU | 22.7 RU | CC(C)[C@H](NC(=O)[C@@H](NC(=O)[C@@H](NC(=O)[C@H](CCC(=O)O)NC(=O)[C@H](CCCCN)NC(=O)[C@H](CO)NC(=O)[C@H](CC(N)=O)NC(=O)[C@H](CCCNC(=N)N)NC(=O)[C@H](CCCCN)NC(=O)[C@@H](NC(=O)CCCC[C@@H]1SC[C@@H]2NC(=O)N[C@@H]21)C(C)C)[C@@H](C)O)C(C)C)C(=O)O [MARCH3_10] (Biotin-VKRNSKETVV-OH) |  |  |  |  | 
 |  |  |  |  | CC(C)[C@H](NC(=O)[C@H](CCC(=O)O)NC(=O)[C@@H](NC(=O)[C@H](CCC(=O)O)NC(=O)[C@H](CCCNC(=N)N)NC(=O)CNC(=O)[C@H](C)NC(=O)CNC(=O)[C@H](CO)NC(=O)CNC(=O)CCCC[C@@H]1SC[C@@H]2NC(=O)N[C@@H]21)[C@@H](C)O)C(=O)O [TAX1_05] (Biotin-GSGAGRETEV-OH) | 75 µM | 50 µM | 33 µM | 1 µM | 96 µM
0.0 RU | 0.0 RU | 0.0 RU | 0.0 RU | 0.0 RU | EKPIDSETKM [GLAST_10, long peptide: last ten wild type C-terminal residues of Excitatory amino acid transporter 1, biotinylated] |  |  |  |  | 
